Active and inactive are the calls of the source. The rule behind the calls is not given here.
Key:
HCT-116 [1] = test: Antiproliferative activity against human HCT-116 cells assessed as reduction in cell viability by MTT assay; format: functional, cell-based
SNB-19 = test: Antiproliferative activity against human SNB-19 cells assessed as reduction in cell viability by MTT assay; format: functional, cell-based
HL-60 = test: Antiproliferative activity against human HL-60 cells assessed as reduction in cell viability by MTT assay; format: functional, cell-based
PC-3 = test: Antiproliferative activity against human PC-3 cells assessed as reduction in cell viability by MTT assay; format: functional, cell-based
HCT-116 [2] = test: Induction of cell cycle arrest in human HCT-116 cells assessed as accumulation at S phase at 20 uM after 24 hrs by PI-staining based flow cytometric analysis (reference value: 39.7%); format: functional
HCT-116 [3] = test: Induction of cell cycle arrest in human HCT-116 cells after 24 hrs by PI-staining based flow cytometric analysis; format: functional

| Compound | IC50 (HCT-116 [1]) [µM] | IC50 (SNB-19) [µM] | IC50 (HL-60) [µM] | IC50 (PC-3) [µM] | Activity (HCT-116 [2]) [%] | Activity (HCT-116 [3]) |
| --- | --- | --- | --- | --- | --- | --- |
| Cc1ccc(S(=O)(=O)OCCNC2=CC(=O)c3ccccc3C2=O)cc1 | 81.8 | 21.1 | > 200 | 59.2 |  |  |
| O=C1C=C(N2CCCC2)C(=O)c2ccccc21 | 159 | > 200 | 111 | > 200 |  |  |
| O=c1[nH]cc(F)c(=O)[nH]1 [FLUOROURACIL] | 19.3 |  |  | 32.9 | 66.6 |  |
| CNC1=CC(=O)c2ccccc2C1=O | 55.7 | 114 | 41.4 | 93.3 |  |  |
| COc1cccc2c1C(=O)c1c(O)c3c(c(O)c1C2=O)C[C@@](O)(C(=O)CO)C[C@@H]3O[C@H]1C[C@H](N)[C@H](O)[C@H](C)O1 [DOXORUBICIN] |  | 0.76 | 2.05 |  |  |  |
| NCCCNC1=CC(=O)c2ccccc2C1=O | 59.6 | 71.3 | 30 | 63.2 |  |  |
| O=C1C=C(NCc2ccccc2)C(=O)c2ccccc21 | 130 | 80 | 86.5 | 70.6 |  |  |
| O=C1C=C(NCCO)C(=O)c2ccccc21 | 70.3 | 108 | 49.8 | 107 |  |  |
| CS(=O)(=O)OCCNC1=CC(=O)c2ccccc2C1=O | 16.3 | 31.2 | 27.5 | 62.8 |  |  |
| O=C1C=C(NCCCNc2nc(N3CCOCC3)nc(N3CCOCC3)n2)C(=O)c2ccccc21 | 57.5 | 126 | 53.4 | 41.8 |  |  |
| O=C1C=C(NCCCNc2ccnc3cc(Cl)ccc23)C(=O)c2ccccc21 | 11.5 | 16.9 | 4.78 | 8.39 |  | inactive |
| O=C1C=C(NCc2ccccn2)C(=O)c2ccccc21 | 13.5 | 23.1 | 4.59 | 16.5 | 47.57 |  |
